Test results from patent US20230219904A1 (SYNGENTA CROP PROTECTION AG, priority 2020, published 2023).

Tests used:
Type in all cases: in vivo
[1] = test system: Abutilon theophrasti (ABUTH); assay: Pre-emergence herbicidal glasshouse test (Table B1); conditions: evaluated after 13 days
In short: (§1)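 Potted plants, glasshouse 24/16° C, 14 h light, 65% RH; spray at 1 d (pre) or 8 d (post) post-sowing; 500 g/h default; acetone/water 50:50 + 0.5% Tween 20. Damage read at 13 d, scored 1–5 (5=80-100%, 1=0-19%).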

[2] = test system: Amaranthus retoflexus (AMARE); assay: as above; conditions: evaluated after 13 days
In short: as §1

[3] = test system: Ipomoea hederacea (IPOHE); assay: as above; conditions: applied at 125 g/ha, evaluated after 13 days
In short: as §1

Setaria faberi (SETFA) [4] = assay: as above; conditions: evaluated after 13 days
In short: as §1

[5] = test system: Abutilon theophrasti (ABUTH); assay: Post-emergence herbicidal glasshouse test (Table B1); conditions: evaluated after 13 days
In short: as §1

[6] = test system: Amaranthus retoflexus (AMARE); assay: as above; conditions: evaluated after 13 days
In short: as §1

[7] = test system: Echinochloa crus-galh (ECHCG); assay: as above; conditions: evaluated after 13 days
In short: as §1

[8] = test system: Ipomoea hederacea (IPOHE); assay: as above; conditions: evaluated after 13 days
In short: as §1

Setaria faberi (SETFA) [9] = assay: as above; conditions: evaluated after 13 days
In short: as §1

[10] = test system: Echinochloa crus-galh (ECHCG); assay: Pre-emergence herbicidal glasshouse test (Table B1); conditions: evaluated after 13 days
In short: as §1

Structure (SMILES)	PRE Application ABUTH, percentage damage on five-point scale ([1]; applied at 125 g/ha)	PRE Application AMARE, percentage damage on five-point scale ([2]; applied at 125 g/ha)	PRE Application IPOHE, percentage damage on five-point scale [3]	PRE Application SETFA, percentage damage on five-point scale (Setaria faberi (SETFA) [4]; applied at 125 g/ha)	POST Application ABUTH, percentage damage on five-point scale ([5]; applied at 125 g/ha)	POST Application AMARE, percentage damage on five-point scale ([6]; applied at 125 g/ha)	POST Application ECHCG, percentage damage on five-point scale ([7]; applied at 125 g/ha)	POST Application IPOHE, percentage damage on five-point scale ([8]; applied at 125 g/ha)	POST Application SETFA, percentage damage on five-point scale (Setaria faberi (SETFA) [9]; applied at 125 g/ha)	PRE Application ECHCG, percentage damage on five-point scale ([10]; applied at 125 g/ha)	PRE Application ABUTH, percentage damage on five-point scale ([1]; applied at 500 g/h)	PRE Application AMARE, percentage damage on five-point scale ([2]; applied at 500 g/h)	PRE Application ECHCG, percentage damage on five-point scale ([10]; applied at 500 g/h)	PRE Application SETFA, percentage damage on five-point scale (Setaria faberi (SETFA) [4]; applied at 500 g/h)	POST Application ABUTH, percentage damage on five-point scale ([5]; applied at 500 g/h)	POST Application AMARE, percentage damage on five-point scale ([6]; applied at 500 g/h)	POST Application ECHCG, percentage damage on five-point scale ([7]; applied at 500 g/h)	POST Application IPOHE, percentage damage on five-point scale ([8]; applied at 500 g/h)	POST Application SETFA, percentage damage on five-point scale (Setaria faberi (SETFA) [9]; applied at 500 g/h)
COc1cccc(C(=O)Nc2c(OC(F)F)ccc(C(=O)Nc3nnnn3C)c2Cl)n1 [Compound 1.085]	5 (5=80-100%)	4 (4=60-79%)	3 (3=40-59%)	3 (3=40-59%)	4 (4=60-79%)	4 (4=60-79%)	4 (4=60-79%)	4 (4=60-79%)	4 (4=60-79%)	–	–	–	–	–	–	–	–	–	–
Cn1nnnc1NC(=O)c1ccc(OC(F)F)c(NC(=O)c2cc(Cl)ccn2)c1Cl [Compound 1.086]	5 (5=80-100%)	5 (5=80-100%)	4 (4=60-79%)	4 (4=60-79%)	4 (4=60-79%)	5 (5=80-100%)	4 (4=60-79%)	5 (5=80-100%)	4 (4=60-79%)	–	–	–	–	–	–	–	–	–	–
Cn1nnnc1NC(=O)c1ccc(OC(F)F)c(NC(=O)c2ncc(Cl)cc2Cl)c1Cl [Compound 1.087]	4 (4=60-79%)	5 (5=80-100%)	4 (4=60-79%)	4 (4=60-79%)	4 (4=60-79%)	4 (4=60-79%)	–	4 (4=60-79%)	4 (4=60-79%)	1 (1=0-19%)	–	–	–	–	–	–	–	–	–
Cn1nnnc1NC(=O)c1ccc(OC(F)F)c(NC(=O)c2nc(Cl)ccc2Cl)c1Cl [Compound 1.088]	4 (4=60-79%)	5 (5=80-100%)	4 (4=60-79%)	5 (5=80-100%)	4 (4=60-79%)	4 (4=60-79%)	3 (3=40-59%)	4 (4=60-79%)	4 (4=60-79%)	–	–	–	–	–	–	–	–	–	–
Cn1nnnc1NC(=O)c1ccc(OC(F)F)c(NC(=O)c2ncc(F)cc2F)c1Cl [Compound 1.089]	2 (2=20-39%)	5 (5=80-100%)	3 (3=40-59%)	3 (3=40-59%)	3 (3=40-59%)	4 (4=60-79%)	2 (2=20-39%)	3 (3=40-59%)	4 (4=60-79%)	–	–	–	–	–	–	–	–	–	–
CCn1nnnc1NC(=O)c1ccc(OC(F)(F)F)c(NC(=O)C(C)(C)C)c1Cl [Compound 1.106]	–	–	–	–	–	–	–	–	–	–	5 (5=80-100%)	5 (5=80-100%)	5 (5=80-100%)	5 (5=80-100%)	5 (5=80-100%)	5 (5=80-100%)	5 (5=80-100%)	5 (5=80-100%)	5 (5=80-100%)
